Assay results from the NIST ThermoML archive (doi:10.1021/je900969u).
Numbers after ± are expanded uncertainties.

Columns and labels:
[1] = 101 kPa, Liquid
[2] = xn = mol fraction of the nth substance listed; details: 101 kPa, Liquid

CN1CCNCC1 [N-methylpiperazine]
[1]
Details | mass density [kg/m3] | viscosity [mPa·s]
298.15 K | 899.28 ± 0.85 | 1.856 ± 0.045
303.15 K | 894.9 ± 0.87 | 1.544 ± 0.037
313.15 K | 886.07 ± 0.91 | 1.25 ± 0.031

CN1CCNCC1 [N-methylpiperazine] + CC1CCCCC1
[2]
Details | mass density, 298.15 K [kg/m3] | mass density, 303.15 K [kg/m3] | mass density, 313.15 K [kg/m3] | viscosity, 298.15 K [mPa·s] | viscosity, 303.15 K [mPa·s] | viscosity, 313.15 K [mPa·s]
x1 = 0.0988 | 775.01 ± 1.8 | 770.65 ± 1.9 | 761.89 ± 1.9 | 0.716 ± 0.02 | 0.676 ± 0.019 | 0.582 ± 0.017
x1 = 0.1972 | 785.84 ± 1.7 | 781.44 ± 1.7 | 772.64 ± 1.8 | 0.751 ± 0.02 | 0.698 ± 0.019 | 0.604 ± 0.017
x1 = 0.297 | 797.52 ± 1.6 | 793.12 ± 1.6 | 784.26 ± 1.6 | 0.801 ± 0.021 | 0.73 ± 0.02 | 0.634 ± 0.018
x1 = 0.3964 | 811.57 ± 1.5 | 805.63 ± 1.5 | 796.74 ± 1.5 | 0.867 ± 0.023 | 0.776 ± 0.021 | 0.674 ± 0.018
x1 = 0.4953 | 822.93 ± 1.4 | 818.51 ± 1.4 | 809.59 ± 1.4 | 0.945 ± 0.025 | 0.84 ± 0.022 | 0.725 ± 0.019
x1 = 0.5948 | 836.59 ± 1.3 | 832.17 ± 1.3 | 823.26 ± 1.3 | 1.057 ± 0.027 | 0.918 ± 0.024 | 0.791 ± 0.021
x1 = 0.6952 | 850.68 ± 1.1 | 846.26 ± 1.2 | 837.34 ± 1.2 | 1.19 ± 0.03 | 1.022 ± 0.026 | 0.868 ± 0.022
x1 = 0.7969 | 865.9 ± 1.1 | 861.49 ± 1.1 | 852.58 ± 1.1 | 1.362 ± 0.034 | 1.164 ± 0.029 | 0.97 ± 0.024
x1 = 0.8977 | 881.36 ± 0.95 | 876.96 ± 0.97 | 868.08 ± 1 | 1.585 ± 0.039 | 1.326 ± 0.032 | 1.087 ± 0.027
x1 = 1 | 899.28 ± 0.85 | 894.9 ± 0.87 | 886.07 ± 0.91 | 1.856 ± 0.045 | 1.544 ± 0.037 | 1.25 ± 0.031

CN1CCNCC1 [N-methylpiperazine] + CCCCCCC
[2]
Details | mass density, 298.15 K [kg/m3] | mass density, 303.15 K [kg/m3] | mass density, 313.15 K [kg/m3] | viscosity, 298.15 K [mPa·s] | viscosity, 303.15 K [mPa·s] | viscosity, 313.15 K [mPa·s]
x1 = 0.1006 | 695.86 ± 0.68 | 691.57 ± 0.69 | 682.9 ± 0.7 | 0.429 ± 0.013 | 0.395 ± 0.012 | 0.36 ± 0.011
x1 = 0.2012 | 713.24 ± 0.65 | 708.91 ± 0.65 | 700.2 ± 0.66 | 0.466 ± 0.013 | 0.438 ± 0.013 | 0.389 ± 0.012
x1 = 0.3006 | 731.62 ± 0.61 | 727.27 ± 0.61 | 718.49 ± 0.63 | 0.511 ± 0.014 | 0.481 ± 0.014 | 0.424 ± 0.012
x1 = 0.4014 | 751.5 ± 0.57 | 747.13 ± 0.57 | 738.3 ± 0.59 | 0.571 ± 0.016 | 0.533 ± 0.015 | 0.467 ± 0.013
x1 = 0.5007 | 772.43 ± 0.53 | 768.04 ± 0.53 | 759.18 ± 0.54 | 0.648 ± 0.017 | 0.599 ± 0.016 | 0.527 ± 0.015
x1 = 0.5996 | 794.38 ± 0.48 | 789.99 ± 0.49 | 781.1 ± 0.5 | 0.756 ± 0.02 | 0.699 ± 0.018 | 0.603 ± 0.016
x1 = 0.7 | 818.02 ± 0.44 | 813.61 ± 0.45 | 804.71 ± 0.46 | 0.905 ± 0.023 | 0.815 ± 0.021 | 0.691 ± 0.018
x1 = 0.7979 | 842.73 ± 0.39 | 838.32 ± 0.4 | 829.43 ± 0.41 | 1.094 ± 0.027 | 0.995 ± 0.025 | 0.826 ± 0.021
x1 = 0.9036 | 871.01 ± 0.34 | 866.62 ± 0.35 | 857.75 ± 0.36 | 1.474 ± 0.036 | 1.234 ± 0.03 | 1.024 ± 0.026
x1 = 1 | 899.28 ± 0.29 | 894.9 ± 0.3 | 886.07 ± 0.31 | 1.856 ± 0.045 | 1.544 ± 0.037 | 1.25 ± 0.031

CCCCCCC [heptane]
[1]
Details | mass density [kg/m3] | viscosity [mPa·s]
298.15 K | 679.72 ± 0.72 | 0.404 ± 0.012
303.15 K | 675.46 ± 0.72 | 0.383 ± 0.012
313.15 K | 666.84 ± 0.73 | 0.342 ± 0.011

CCCCCCC [heptane] + CN1CCNCC1
[2], x2 = 0
Details | mass density [kg/m3] | viscosity [mPa·s]
298.15 K | 679.72 ± 0.72 | 0.404 ± 0.012
303.15 K | 675.46 ± 0.72 | 0.383 ± 0.012
313.15 K | 666.84 ± 0.73 | 0.342 ± 0.011

CC1CCCCC1 [methylcyclohexane]
[1]
Details | mass density [kg/m3] | viscosity [mPa·s]
298.15 K | 765 ± 1.9 | 0.719 ± 0.02
303.15 K | 760.67 ± 2 | 0.655 ± 0.019
313.15 K | 751.94 ± 2 | 0.573 ± 0.017

CC1CCCCC1 [methylcyclohexane] + CN1CCNCC1
[2], x2 = 0
Details | mass density [kg/m3] | viscosity [mPa·s]
298.15 K | 765 ± 1.9 | 0.719 ± 0.02
303.15 K | 760.67 ± 2 | 0.655 ± 0.019
313.15 K | 751.94 ± 2 | 0.573 ± 0.017
